# Experimental data reported in ChEMBL document CHEMBL5050844 (2019).
# Tests used:
# [1] = Induction of anti-CD3 antibodies-stimulated human T cell activation at 1 uM assessed fold increase in IL-2 secretion measured by ELISA assay; format: functional, T cell line; further: reference of the scale not given here
# [2] = Induction of anti-CD3 antibodies-stimulated human exhausted CD4+ T cell activation assessed fold increase in CTLA4 expression measured by flow cytometry analysis; format: functional, T cell line; further: reference of the scale not given here
# [3] = Induction of anti-CD3/CD28 antibodies-stimulated human T cell activation at 4 uM assessed fold increase in IL-2 secretion measured by ELISA assay; format: functional, T cell line
# [4] = Induction of activation of human CD56+ CD3- NK cells co-cultured with human K562 cells in 1:1 ratio and assessed as increase in IFN-gamma secretion at 2.5 uM measured by ELISA assay; format: functional, Natural killer cell
# [5] = Induction of anti-CD3/CD28 antibodies-stimulated human anergic T cell activation at 10 uM assessed fold increase in IFN-gamma secretion measured by ELISA assay; format: functional, T cell line
# [6] = Induction of anti-CD3 antibodies-stimulated human T cell activation at 10 uM assessed fold increase in IFN-gamma secretion measured by ELISA assay; format: functional, T cell line; further: reference of the scale not given here
# [7] = Induction of anti-CD3 antibodies-stimulated human T cell activation at 1.11 uM assessed fold increase in TNF-alpha secretion measured by ELISA assay; format: functional, T cell line; further: reference of the scale not given here
# [8] = Induction of anti-CD3/CD28 antibodies-stimulated human CD4+ T cell activation at 1.11 uM assessed fold increase in CD69 expression measured by flow cytometry analysis; format: functional, T cell line
# [9] = Induction of anti-CD3/CD28 antibodies-stimulated human T cell activation at 4 uM assessed fold increase in CD25 expression measured by ELISA assay; format: functional, T cell line
# [10] = Induction of anti-CD3 antibodies-stimulated human T cell activation at 10 uM assessed fold increase in TNF-alpha secretion measured by ELISA assay; format: functional, T cell line; further: reference of the scale not given here
# B cell = experiment: Induction of anti-IgM-stimulated human CD20+ B cell activation at 10 to 1000 uM assessed as increase in CD69 expression measured as mean fluorescence intensity AUC by flow cytometry analysis; format: functional, cell-based; settings: dose 10-1000 µM
# [11] = Induction of anti-CD3/CD28 antibodies-stimulated human T cell activation at 0.3 uM assessed fold increase in IL-2 secretion measured by ELISA assay; format: functional, T cell line
# [12] = Induction of allogenic human T cell activation at 10 uM assessed fold increase in cell proliferation; format: functional, T cell line
# [13] = Induction of anti-CD3 antibodies-stimulated human CD4+ T cell activation at 10 uM assessed fold increase in CD69 expression measured by flow cytometry analysis; format: functional, T cell line; further: reference of the scale not given here
# [14] = Induction of anti-CD3 antibodies-stimulated human exhausted T cell activation assessed fold increase in IL-2 secretion measured by ELISA assay; format: functional, T cell line; further: reference of the scale not given here
# [15] = Induction of anti-CD3 antibodies-stimulated human exhausted T cell activation assessed fold increase in IFN-gamma secretion measured by ELISA assay; format: functional, T cell line; further: reference of the scale not given here
# [16] = Induction of anti-CD3/CD28 antibodies-stimulated human T cell activation at 1.11 uM assessed fold increase in TNF-alpha secretion measured by ELISA assay; format: functional, T cell line
# [17] = Induction of activation of human CD56+ CD3- NK cells co-cultured with human K562 cells in 1:1 ratio and assessed as increase in TNF-alpha secretion at 0.625 uM measured by ELISA assay; format: functional, Natural killer cell
# [18] = Induction of anti-CD3/CD28 antibodies-stimulated human CD8+ T cell activation at 10 uM assessed fold increase in cell proliferation measured by flow cytometry analysis; format: functional, T cell line
# [19] = Induction of anti-CD3/CD28 antibodies-stimulated human CD4+ T cell activation at 1.11 uM assessed fold increase in cell proliferation measured by flow cytometry analysis; format: functional, T cell line
# [20] = Induction of activation of human CD56+ CD3- NK cells co-cultured with human K562 cells in 1:1 ratio and assessed as increase in TNF-alpha secretion at 2.5 uM measured by ELISA assay; format: functional, Natural killer cell
# [21] = Induction of anti-CD3/CD28 antibodies-stimulated human T cell activation at 1 uM assessed fold increase in IL-2 secretion measured by ELISA assay; format: functional, T cell line
# [22] = Induction of activation of human CD56+ CD3- NK cells co-cultured with human K562 cells in 1:1 ratio and assessed as increase in IFN-gamma secretion at 10 uM measured by ELISA assay; format: functional, Natural killer cell
# [23] = Induction of allogenic human T cell activation at 3 uM assessed fold increase in cell proliferation; format: functional, T cell line
# [24] = Induction of anti-CD3/CD28 antibodies-stimulated human T cell activation at 10 uM assessed fold increase in IFN-gamma secretion measured by ELISA assay; format: functional, T cell line
# [25] = Induction of anti-CD3/CD28 antibodies-stimulated human anergic T cell activation at 0.37 uM assessed fold increase in IFN-gamma secretion measured by ELISA assay; format: functional, T cell line
# [26] = Induction of anti-CD3/CD28 antibodies-stimulated human T cell activation at 10 uM assessed fold increase in TNF-alpha secretion measured by ELISA assay; format: functional, T cell line
# [27] = Induction of activation of human CD56+ CD3- NK cells co-cultured with human K562 cells in 1:1 ratio and assessed as increase in IFN-gamma secretion at 0.625 uM measured by ELISA assay; format: functional, Natural killer cell
# [28] = Induction of anti-CD3 antibodies-stimulated human CD4+ T cell activation at 1.11 uM assessed fold increase in CD69 expression measured by flow cytometry analysis; format: functional, T cell line; further: reference of the scale not given here
# [29] = Induction of anti-CD3 antibodies-stimulated human CD8+ T cell activation at 10 uM assessed fold increase in cell proliferation measured by flow cytometry analysis; format: functional, T cell line; further: reference of the scale not given here
# [30] = Induction of anti-CD3/CD28 antibodies-stimulated human T cell activation at 10 uM assessed fold increase in GM-CSF secretion measured by ELISA assay; format: functional, T cell line
# [31] = Induction of anti-CD3/CD28 antibodies-stimulated human T cell activation at 1.11 uM assessed fold increase in GM-CSF secretion measured by ELISA assay; format: functional, T cell line
# [32] = Induction of anti-CD3 antibodies-stimulated human T cell activation at 8 uM assessed fold increase in CD25 expression measured by ELISA assay; format: functional, T cell line; further: reference of the scale not given here
# [33] = Induction of anti-CD3/CD28 antibodies-stimulated human CD4+ T cell activation at 10 uM assessed fold increase in CD69 expression measured by flow cytometry analysis; format: functional, T cell line
# [34] = Induction of anti-CD3/CD28 antibodies-stimulated human CD8+ T cell activation at 10 uM assessed fold increase in CD69 expression measured by flow cytometry analysis; format: functional, T cell line
# [35] = Induction of anti-CD3/CD28 antibodies-stimulated human CD8+ T cell activation at 1.11 uM assessed fold increase in CD69 expression measured by flow cytometry analysis; format: functional, T cell line
# [36] = Induction of anti-CD3 antibodies-stimulated human T cell activation at 8 uM assessed fold increase in IL-2 secretion measured by ELISA assay; format: functional, T cell line; further: reference of the scale not given here
# [37] = Induction of anti-CD3/CD28 antibodies-stimulated human T cell activation at 1.11 uM assessed fold increase in IFN-gamma secretion measured by ELISA assay; format: functional, T cell line
Compound,fold change (FC) [1],fold change (FC) [2],fold change (FC) [3],fold change (FC) [4],fold change (FC) [5],fold change (FC) [6],fold change (FC) [7],fold change (FC) [8],fold change (FC) [9],fold change (FC) [10],AUC (B cell),fold change (FC) [11],fold change (FC) [12],fold change (FC) [13],fold change (FC) [14],fold change (FC) [15],fold change (FC) [16],fold change (FC) [17],fold change (FC) [18],fold change (FC) [19],other results
Cc1cc(C(=O)Nc2cccc([C@H](C)Cc3nncn3C)c2)nc(C2CC2)n1,>=0.201,>1.61,>=7.5,2.01,<=2.5,>4,1.51,<=1.2,>=1.76,1.51,> 1.51,5,2.01,>1.601,<=2.5,1.41,2.01,1.01,>4,<=2,fold change (FC) [20]: 2.01; fold change (FC) [21]: >=7.5; fold change (FC) [22]: 2.01; fold change (FC) [23]: <=2; fold change (FC) [24]: >4; fold change (FC) [25]: <=2.5; fold change (FC) [26]: >4; fold change (FC) [27]: 2.01; fold change (FC) [28]: <=1.2; fold change (FC) [29]: >4; fold change (FC) [30]: >4; fold change (FC) [31]: >4; fold change (FC) [32]: >=1.001; fold change (FC) [33]: >1.601; fold change (FC) [34]: 1.201; fold change (FC) [35]: <=1.2; fold change (FC) [36]: >=0.201; fold change (FC) [37]: 2.01
Cc1cc2c(c(C3CC3)n1)CN(c1cccc([C@H](C)Cc3nncn3C)c1)C2=O,0.051,<=1.4,2.51,1.01,2.51,<=2,<=1.5,<=1.2,1.01,<=1.5,< 0.5,1.01,<=2,1.201,<=2.5,<=1.4,<=1.5,<=1,2.01,<=2,fold change (FC) [20]: <=1; fold change (FC) [21]: 1.01; fold change (FC) [22]: 2.01; fold change (FC) [23]: <=2; fold change (FC) [24]: <=2; fold change (FC) [25]: <=2.5; fold change (FC) [26]: 2.01; fold change (FC) [27]: 1.01; fold change (FC) [28]: <=1.2; fold change (FC) [29]: 2.01; fold change (FC) [30]: 2.01; fold change (FC) [31]: <=1.5; fold change (FC) [32]: 0.801; fold change (FC) [33]: 1.201; fold change (FC) [34]: 1.201; fold change (FC) [35]: <=1.2; fold change (FC) [36]: 0.101; fold change (FC) [37]: <=2
C[C@H](Cc1nncn1C)c1cccc(NC(=O)c2cccc(CCO)n2)c1,0.051,<=1.4,2.51,1.01,2.51,<=2,<=1.5,<=1.2,1.31,<=1.5,1.01,1.01,<=2,1.201,<=2.5,<=1.4,<=1.5,<=1,2.01,<=2,fold change (FC) [20]: 1.01; fold change (FC) [21]: 1.01; fold change (FC) [22]: 2.01; fold change (FC) [23]: <=2; fold change (FC) [24]: >4; fold change (FC) [25]: <=2.5; fold change (FC) [26]: 1.51; fold change (FC) [27]: 1.01; fold change (FC) [28]: <=1.2; fold change (FC) [29]: <=2; fold change (FC) [30]: 1.51; fold change (FC) [31]: <=1.5; fold change (FC) [32]: 0.801; fold change (FC) [33]: 1.201; fold change (FC) [34]: <=1.2; fold change (FC) [35]: <=1.2; fold change (FC) [36]: 0.151; fold change (FC) [37]: <=2
C[C@H](Cc1nncn1C)c1cccc(N2Cc3c(ccnc3C3CC3)C2=O)c1,0.151,<=1.4,1.01,1.01,2.51,2.01,<=1.5,<=1.2,1.31,<=1.5,0.5,1.01,<=2,1.201,<=2.5,>1.61,1.51,1.01,3.01,2.01,fold change (FC) [20]: 1.01; fold change (FC) [21]: 1.01; fold change (FC) [22]: 2.01; fold change (FC) [23]: <=2; fold change (FC) [24]: 2.01; fold change (FC) [25]: <=2.5; fold change (FC) [26]: 2.01; fold change (FC) [27]: 2.01; fold change (FC) [28]: <=1.2; fold change (FC) [29]: 3.01; fold change (FC) [30]: >4; fold change (FC) [31]: 2.01; fold change (FC) [32]: >=1.001; fold change (FC) [33]: 1.401; fold change (FC) [34]: 1.201; fold change (FC) [35]: <=1.2; fold change (FC) [36]: >=0.201; fold change (FC) [37]: <=2
